From patent publication US9206124B2, “Treatment of drug-resistant cancer with 2-aryl-2-(3-indolyl) acetohydroxamates” (New Mexico Technical Research Foundation, priority 2013, dated 2015)

What was measured:
[1] = system: HeLa cervical adenocarcinoma cells; assay: MTT antiproliferative assay, HeLa; format: cell-based; details: Homo sapiens, Table 1, 48 h treatment, ± SD, read-out: cell viability GI50, HeLa
Text: (§1) This finding led to an exploration of the SAR analyses by synthesizing the first generation compounds 3 containing diverse substituents at different positions in the 2-aryl-2-(3-indolyl)acetohydroxamate skeleton and testing this series for in vitro growth inhibition using the MTT colorimetric assay against two cell lines, human HeLa cervical and MCF-7 breast adenocarcinomas (Table 1). It emerged from these experiments that the substitution on the benzene ring of the indole moiety (R^2≠H) was not tolerated (e.g., 3abfa and 3acfa), whereas the nitrogen could be derivatized (R^1≠H) with only a small activity drop (e.g., 3bafa vs 3aafa).
(§2) Human cancer cell lines were obtained from the American Type Culture Collection (ATCC, Manassas, Va., USA), the European Collection of Cell Culture (ECACC, Salisbury, UK) and the Deutsche Sammlung von Mikroorganismen and Zellkulturen (DSMZ, Braunschweig, Germany). Human cervical adenocarcinoma HeLa cells were cultured in DMEM supplemented with 10% fetal bovine serum (FBS). Human mammary carcinoma MCF-7 cells were cultured in RPMI supplemented with 10% FBS. The U87 cells (ATCC HTB-14) were cultured in DMEM culture medium, while the A549 cells (DSMZ ACC107) were cultured in RPMI culture medium supplemented with 10% heat-inactivated FBS. The glioblastoma multiforme Hs683 (ATCC HTB-138) and the T98G (ATCC CRL-1690) cell lines were cultivated in DMEM supplemented with 10% FBS. The Human uterine sarcoma MES-SA and MES-SA/Dx5 cells were cultured in RPMI-1640 medium supplemented with 10% FBS with MES SA/Dx5 maintained in the presence of 500 nM Doxorubicin (Sigma). SKMEL-28 cells (ATCC HTB72) and U373 glioblastoma cells (ECACC 08061901) were cultured in RPMI culture medium supplemented with 10% heat-inactivated FBS. Cell culture media were supplemented with 4 mM glutamine (Lonza code BE17-605E), 100 μg/mL gentamicin (Lonza code 17-5182), and penicillin-streptomycin (200 units/ml and 200 μg/ml) (Lonza code 17-602E). Neurosphere culture GBM 031810 was established using known methods and maintained in Neurobasal medium (Invitrogen Carlsbad, Calif.) with B27 supplement (20 ul/ml; Invitrogen), Glutamax (10 ul/ml; Invitrogen), fibroblast growth factor-2 (20 ng/ml; Peprotech, Rocky Hill, N.J., USA), epidermal growth factor (20 ng/ml; Peprotech), heparin (32 IE/ml; Sigma Aldrich, St. Louis, Mo.), and penicillin-streptomycin (1×, Invitrogen). Growth factors and heparin were renewed twice weekly. All cell lines were cultured in T25 flasks, maintained and grown at 37° C., 95% humidity, 5% CO2.
(§3) Antiproliferative properties of the synthesized compounds were evaluated by the MTT assay. All compounds were dissolved in DMSO at a concentration of either 100 mM or 50 mM prior to cell treatment. The cells were trypsinized and seeded at 4×10^3 cells per well into 96-well plates. The cells were grown for 24 h, treated with compounds at concentrations ranging from 0.001 to 100 μM and incubated for 48 h in 200 μL media. 20 μL of MTT reagent in serum free medium (5 mg/mL) was added to each well and incubated further for 2 h. Media was removed and the resulting formazan crystals were re-solubilized in 200 μL of DMSO. A490 was measured using a Molecular Devices Thermomax plate reader. The experiments were performed in quadruplicate and repeated at least twice for each compound per cell line. Cells treated with 0.1% DMSO were used as a negative control; 1 μM phenyl arsine oxide (PAO) was used as a positive control.

[2] = system: MCF-7 breast adenocarcinoma cells; assay: MTT antiproliferative assay, MCF-7; format: cell-based; details: Homo sapiens, MCF7, Table 1, 48 h treatment, ± SD, read-out: cell viability GI50, MCF7
Text: as §1, §2, §3

[3] = system: A549 non-small-cell-lung cancer cells; assay: MTT antiproliferative assay, A549; format: cell-based, human
Description: As part of the ongoing efforts aimed at identification of compounds active against cancer cells displaying resistance to proapoptotic agents, the selected 2-aryl-2-(3-indolyl)-acetohydroxamates were evaluated for in vitro growth inhibition against a panel of additional cancer cell lines including those resistant to various proapoptotic stimuli, such as human T98G and U87 glioblastoma and human A549 non-small-cell-lung cancer (NSCLC), as well as an apoptosis-sensitive tumor model, such as human Hs683 anaplastic oligodendroglioma, used as a reference. The data reveal that for the most part these compounds retain the single-digit antiproliferatve GI50 values in this challenging cancer cell panel.
as §2, §3

[4] = system: GBM 031810 neurosphere cells; assay: Antiproliferative effect on patient-derived GBM neurosphere culture; format: cell-based; details: Homo sapiens, average IC50 ± SD from three determinations, read-out: GI50 in vitro, GBM 031810 (average IC50)
Text: Given the ability of the hydroxamates to overcome drug resistance a few select compounds were further evaluated against glioma cells grown in neurosphere conditions, which are known to promote the growth of stem-like cells from human glioma tissue. Indeed, the neurospheres show the ability of self-renewal by regrowing in culture from individual cells, and can differentiate into multiple neural lineages and recapitulate human gliomas on both histological and genetic levels more faithfully than serum cultured glioma cell lines when injected into the brains of mice. Because, neurosphere cells are generally resistant to radiation and chemotherapy, the micromolar to submicromolar activity of the hydroxamates against the glioma neurosphere cell cultures is noteworthy (Table 4). […] It is worthy of note, that the unmethylated MGMT promoter leading to such temozolomide resistance is found in about half of all GBM patients, who respond poorly to temozolomide chemotherapy. To date, no alternative treatment exists for this group of patients.
as §2, with “Growth factors and heparin were renewed twice weekly. All cell lines were cultured in T25 flasks, maintained and grown at 37° C., 95% humidity, 5% CO2.” left out

U373 glioblastoma cells = assay: Quantitative videomicroscopy, U373; format: cell-based, human; details: 25 μM
Description: To obtain insight into the effectiveness of 2-aryl-2-(3-indolyl)acetohydroxamates against apoptosis-resistant cancers, computer-assisted phase-contrast microscopy (quantitative videomicroscopy) was employed to observe the phenotypic morphological changes in cancer cells as they are treated with these compounds. […] Based on the phase contrast pictures obtained by means of quantitative videomicroscopy, a global growth ratio (GGR) was calculated, which corresponds to the ratio of the mean number of cells present in a given image captured in the experiment (in this case after 24, 48 and 72 h) to the number of cells present in the first image (at 0 h). The ratio obtained in the 3aafa-treated experiment was then divided by the ratio obtained in the control. […] Thus, the GGR calculations are consistent with the MTT colorimetric data and indicate that it is the cytostatic properties associated with the hydroxamates that are responsible for their antiproliferative effects against apoptosis-resistant cancer cells, at least at relevant concentrations (slightly above the GI50 values).
Human cancer cell lines were obtained from the American Type Culture Collection (ATCC, Manassas, Va., USA), the European Collection of Cell Culture (ECACC, Salisbury, UK) and the Deutsche Sammlung von Mikroorganismen and Zellkulturen (DSMZ, Braunschweig, Germany). […]

[5] = system: HeLa cervical and MCF-7 breast adenocarcinomas; assay: In vitro growth inhibition (MTT); format: cell-based, human; details: HeLa and MCF-7
Text: as §1, §3

GI50 [1]: 3.6 ± 0.5 µM
GI50 [2]: 3.4 ± 0.3 µM
GI50 ([3]; Homo sapiens, A549, 48 h treatment, MTT, ± SD, read-out: GI50 in vitro, A549): 2.8 ± 0.4 µM
antiproliferative potency (GI50) [5]: single-digit micromolar
SMILES: O=C(NO)C(c1ccccc1)c1c(-c2ccc3ccccc3c2)[nH]c2ccccc12 (centres unmarked) [Compound 3aafa]
activity against cell populations resistant to proapoptotic agents, A549 ([3]; FIG. 3, increasing concentration): potent growth inhibitory properties against most of the cells
IC50 [4]: 0.8 ± 0.6 µM
phenotypic effect, U373 (U373 glioblastoma cells; slightly exceeding GI50, FIG. 4): inhibits cancer cell proliferation without inducing cell death
global growth ratio (GGR), U373 (U373 glioblastoma cells; 72 h observation, treated/control): ca. 0.3
